Source: article PMC7357169, “Blinded, Multicenter Evaluation of Drug-induced Changes in Contractility Using Human-induced Pluripotent Stem Cell-derived Cardiomyocytes” (Toxicological Sciences, 2020)
“Also recorded” adds a separate entry of the source.

What was measured:
[1] = tested on: cardiac contractility; settings: cited from earlier work; for EC50: read-out: Expected effect on contractility in isolated cardiomyocytes/heart muscles, EC50
[2] = cited from earlier work; for FTPC: free therapeutic plasma concentration, Refs of Supplementary Table 1; for FPTC (free plasma therapeutic concentration): ref Supplementary Table 1
[3] = tested on: ERC18 hiPSC-CM EHTs; assay: Engineered heart tissue (EHT) contractility, ERC18 hiPSC-CMs; type: cell-based, human; settings: for changes in CA on the EHT platform: one range given for three NE drugs incorrectly predicted as PIs, EHT: ERC18 per Table 1
From the text: (§1) To generate EHTs, in-house hiPSC lines, R-PAT, and ERC18, were differentiated using 2D-monolayer- (R-PAT) or 3D-embryoid body- (ERC18) protocol and fabricated as recently described ([Breckwoldt et al., 2017]; [Mosqueira et al., 2018]). In brief, casting molds were generated in 24-well plates with 2% agarose (Invitrogen, 15510-019) and Polytetrafluorethylene (PTFE) spacers (EHT Technologies, C0002). PDMS racks (EHT Technologies, C0001) were placed in the 24-well plates so that pairs of PDMS posts reached into each agarose casting mold. A reconstitution mix was prepared consisting of: 1 × 10^6 hiPSC-CM; 81.9 µl cardiomyocyte medium; 10 µl Matrigel basement membrane matrix (BD 354234); 5.5 µl 2 × DMEM; 0.1 µl Y-27632 (10 mM; Biorbyt orb60104); 2.5 µl bovine fibrinogen (5 mg/ml; Sigma F4753). Reconstitution mix (97 µl) was mixed with prealiquoted 3 µl thrombin (100 U/ml; Biopur BP11-10-1104) and pipetted into the agarose casting mold. GCAMP6f-lentiviral particles (multiplicity of infection: 0.3, functional titer) were included in the EHT reconstitution mix for Ca^2+ transient analysis. EHTs started to beat coherently after 10–14 days and were analyzed for contraction and Ca^2+ transient at ≥ 20 days.
(§2) EHTs were transferred from culture medium into preequilibrated (37°C, 40% O2, 7% CO2), modified Tyrode’s solution (in mM, 120 NaCl; 22.6 NaHCO3; 5.4 KCl; 5 glucose; 1 MgCl2; 0.4 NaH2PO4; 0.6–1 CaCl2; 0.05 Na2EDTA; 25 HEPES) for R-PAT and into DMEM (Gibco 21068028; in mM, 110 NaCl; 44 NaHCO3; 5 KCl; 25 glucose; 0.8 MgSO4; 0.9 NaH2PO4, 0.6–1 CaCl2; 25 HEPES, and vitamins and amino acids) for ERC18 EHTs 40 min before analysis to equilibrate to the testing medium. After equilibration, the cumulative concentration response curve was started with baseline recording in preequilibrated medium with Ca^2+ concentration of 0.6–1 mM.
(§3) Contractility analysis was via automated video-optical contractility analysis was performed in 24-well cell culture plates (Nunc, 122475) ([Breckwoldt et al., 2017]). Video files of EHT contractions were analyzed by automated EHT figure recognition software (EHT Technologies, A0001). Top and bottom ends of EHT contour were identified and followed during the course of recording. Force was calculated based on shortening during contraction, elastic propensity, and geometry of PDMS posts.
(§4) Data were normalized to a pool of time-matched controls (contractility analysis, ERC18: n = 22 EHTs/7.0 experiments; R-PAT: 16 EHTs/5.0 experiments; combined contractility- and Ca^2+ transient-analysis: 21 EHTs/8.0 experiments) used for all contractility/combined contractility- and Ca^2+ transient-measurements. Data are plotted as relative change to the mean baseline, normalized to pool time control. Statistical significance was evaluated by GraphPad Software, 1-way ANOVA with Dunnett’s multiple comparisons test versus baseline.

[4] = tested on: heart; set-up: method as in Refs column of Supplementary Table 1; settings: Refs of Supplementary Table 1; cited from earlier work
[5] = tested on: R-PAT hiPSC-CM EHTs; assay: Engineered heart tissue (EHT) contractility, R-PAT hiPSC-CMs; type: cell-based, human
From the text: as §1, §2, §3, §4

[6] = tested on: R-PAT hiPSC-CMs; assay: CellOPTIQ (CO) contractility, R-PAT hiPSC-CM 2D monolayers; type: cell-based, human; settings: mean maximum measurable percentage change relative to baseline, at concentration of column Conc μM or cell superscript
Protocol: Manufacturer instructions were followed for the commercial hiPSC lines. […] The same plates were used for R-PAT hiPSC-CMs, which were seeded at 40 000 cells/well and maintained until days 20 and 21 of differentiation before use.
hiPSC-CMs in 96-well plate were transiently loaded in 50 µl/well of SFM containing FluoVolt (1:200 part B, 1:2000 part A; Life Tech, F10488) for 20 min at 37°C and 5% CO2. After incubation, the medium was replaced with 200 μl/well of SFM. Plates were then incubated at 37°C and 5% CO2 for 15 min before recording, which were made using a ×40 (NAO.6) objective at 10 KHz. […] Baselines and drug addition were as described for the TTM system. Electrophysiology data were analyzed using CellOPTIQ proprietary software of Clyde Biosciences and were normalized to a maximum amplitude of 1 and minimum of 0 to standardize height for comparison of traces created in OriginPro (OriginLab version 7.5). Contractility data were analyzed based on pixel displacement using an ImageJ plug-in. This plug-in uses a sum of absolute differences algorithm.

[7] = tested on: ERC18 hiPSC-CM EHTs; settings: EHT:ERC
Protocol: For long-term contractility analysis of sunitinib, hiPSC-CM EHTs were equilibrated to regular cell culture medium without serum (DMEM, Biochrom F0415; penicillin/streptomycin 1% [volume/volume], Gibco 15140; aprotinin 5 µM, Sigma-Aldrich A1153; insulin 1.7 µM, Sigma-Aldrich I9278; glutamine 2000 µM, Gibco 25030-081; triiodothyronine 0.77 nM, European Commission-Joint Research Center IRMM-469; hydrocortisone 137 µM: Sigma-Aldrich H0888). Medium change, drug addition and video-optical contractility analysis was performed daily and contraction data was normalized to time control.
The EHT:ERC platform-cell combination was exposed to 100 µM doxorubicin (C) or 1 µM sunitinib (D) for up to 17.5 hr (C) or up to 8 days (D). CA is shown normalized to time controls.

[8] = tested on: R-PAT hiPSC-CMs; assay: CO:R-PAT contractility after 24 h exposure
From the text: We asked whether longer term exposure would affect contractility (Supplementary Figure 7).
Prolonged exposure detects NIs in 2D and 3D cultures of hiPSC-CMs. […] CA is shown normalized to time controls.

[9] = tested on: hiPSC-CMs; assay: CellOPTIQ voltage (FluoVolt) analysis, hiPSC-CMs; type: cell-based, human
Protocol: hiPSC-CMs in 96-well plate were transiently loaded in 50 µl/well of SFM containing FluoVolt (1:200 part B, 1:2000 part A; Life Tech, F10488) for 20 min at 37°C and 5% CO2. After incubation, the medium was replaced with 200 μl/well of SFM. Plates were then incubated at 37°C and 5% CO2 for 15 min before recording, which were made using a ×40 (NAO.6) objective at 10 KHz. […] Electrophysiology data were analyzed using CellOPTIQ proprietary software of Clyde Biosciences and were normalized to a maximum amplitude of 1 and minimum of 0 to standardize height for comparison of traces created in OriginPro (OriginLab version 7.5). Contractility data were analyzed based on pixel displacement using an ImageJ plug-in. […]
Action potential duration (APD30, APD90) and triangulation (APD90–APD30) were calculated from voltage waveforms to determine whether electrophysiology was altered, including the appearance of arrhythmias. For Ca^2+ handling, amplitude, time to peak, and decay time were assessed, whereas similar parameters (contraction amplitude [CA], contraction time [CT], and relaxation time [RT]) were derived for contraction (Supplementary Figure 2). […]

[10] = isolated cardiomyocytes/heart muscles, Refs of Supplementary Table 1
[11] = EHT: R-PAT, mean maximum measurable percentage change relative to baseline, at concentration of column Conc μM or cell superscript
[12] = EHT: ERC18, mean maximum measurable percentage change relative to baseline, at concentration of column Conc μM or cell superscript

SMILES	Expected effect on contractility in isolated cardiomyocytes/heart muscles [1, 10]	FTPC [2] [µM]	FPTC (free plasma therapeutic concentration) [2] [µM]	changes in CA on the EHT platform [3]	Expected cardiac effects in vivo [4]	EC50 [1, 10] [µM]	effect of exposure to the highest concentration for 24 h [8]	electrophysiology after 30 min exposure [9]	other results
CC[C@H](C)C(=O)O[C@H]1C[C@H](O)C=C2C=C[C@H](C)[C@H](CC[C@@H](O)C[C@@H](O)CC(=O)O)[C@H]21 [Pravastatin]	None	0.018	0.018	19%–33	None				
C[C@H](N[C@@H](CCc1ccccc1)C(=O)O)C(=O)N1CCC[C@H]1C(=O)O [Enalaprilat]	None	0.12	0.12		None				CA (contraction amplitude) [5, 11]: +33%; CT (contraction time) [5, 11]: +5 ^1 µM %; RT (relaxation time) [5, 11]: −14%; changes in CA on the EHT platform ([5]; one range given for three NE drugs incorrectly predicted as PIs, EHT: R-PAT per Table 1): 19%–33; inotropic effect via bradykinin B1 receptor activation ([1]; ACE inhibitors, ref Ignjatovic et al., 2002): positive inotropic effect; CA (contraction amplitude) [6]: +54%; CT (contraction time) [6]: +20 ^10 µM %; RT (relaxation time) [6]: +34%; CA (contraction amplitude) [3, 12]: +2 ^10 µM %; CT (contraction time) [3, 12]: −3%; RT (relaxation time) [3, 12]: −4%
COC(=O)N1CCN(Cc2cccc(NC(=O)Nc3ccc(C)nc3)c2F)CC1 [Omecamtiv mecarbil]	PI, NCl, NL, diastolic shortening (dog myocytes)	0.05 to 0.42			PI, prolonged syst. ejection time, small decrease in heart rate	1			increased CT ([5]; hiPSC-CMs configured as 3D EHTs, blinded phase, without convincing evidence for increased CA): approximately +40%
CCCCNC(=O)NS(=O)(=O)c1ccc(C)cc1 [Tolbutamide]	None (canine CM) or small PI (rabbit atria, rat heart)			19%–33	None or PI (dogs, men)	~30			
COc1cccc2c1C(=O)c1c(O)c3c(c(O)c1C2=O)C[C@@](O)(C(=O)CO)C[C@@H]3O[C@H]1C[C@H](N)[C@H](O)[C@H](C)O1 [Doxorubicin]	PI+NCl and reduced post-rest potentiation at 30 µM (GP), but strong NI at 1000 µM (GP, rat); rate-dependent	1 to 2	1 to 2		NI, time course of cardiotox dose-dependent		loss of contraction and cell death	altered electrophysiology; also recorded: changes in electrophysiology	time after which EHT contraction ceased ([7]; 100 µM doxorubicin): 17.5 h; reported inotropic effects ([1]; ref Kim et al., 1980, Vanboxtel et al., 1978, Wang and Korth, 1995): transient positive inotropy is followed by robust negative inotropy at higher concentrations; inotropy trend with 24 h treatment ([8]; 1 to 30 µM, increased CA, decreased CT): trend of positive inotropy
CCN(CC)CCNC(=O)c1c(C)[nH]c(/C=C2\C(=O)Nc3ccc(F)cc32)c1C [Sunitinib]		0.003	0.003		NI, NC at high doses, chronic cardiotox		loss of contraction and cell death	altered electrophysiology	CA over a 7-day period ([7]; 1 µM sunitinib, normalized to time controls): decline in CA; IC50 ([1]; negative inotropy, isolated cardiomyocytes/heart muscles, Refs of Supplementary Table 1, read-out: Expected effect on contractility in isolated cardiomyocytes/heart muscles, IC50): 10 µM
